The values that follow come from patent publication US7358233B2, “Tetronic acid derivative” (Toudai TLO, Ltd, priority 2001, dated 2008).

For experiment [1], the system named is GRP78. Kind of experiment: Western blotting of endogenous GRP78 induction in HeLa78C6 cells. It counts as cell-based, human. The protocol: HeLa78C6 cells were cultured in DMEM media, 30 min before tunicamycin addition each concentration of VST was added, followed by 2 μg/mL of tunicamycin, and treated for 18 hours. The cells were collected, and the induction of GRP78 was detected by Western blotting using anti-GRP78 antibody (Stressgene). As a result, it was confirmed that VST inhibits not only the reporter assay, but also the induction of endogenous molecular chaperone GRP78 at the protein level in a concentration-dependent manner (FIG. 9A).
Furthermore, HeLa78C6 was cultured by the above-mentioned culturing method and pretreated for 30 min with 50 μM VST. Then, the cells were collected at each time point after the addition of tunicamycin to detect the GRP78 protein level by Western blotting.
Moreover, the GRP78 level 18 hours after the treatment with each of the indicated endoplasmic reticulum stress-inducing agents was detected using a method similar to that used for FIG. 9A.
Background: A western blot detects proteins with antibodies after separation by electrophoresis.

Experiment [2] relates to HT-29 cells. The experiment is described as follows: Combined use of VST and cisplatin, colony-forming ability of HT-29 cells. The class given is cell-based. The text has this:
Enhancement of endoplasmic reticulum stress response promotes survival of cells under undernutritive conditions, and at the same time allows cells to acquire resistance to antitumor agents. Therefore, the inventors intended to examine the effect of VST on known antitumor agents. […] Therefore, the combined effect with other pharmaceutical agents could not be duly examined. Thus, cisplatin generally used for solid cancer treatment was used to examine the combined effect, due to its activity on cancer cells that is maintained even under low glucose conditions. Specifically, HT-29 cells were cultured by the above-mentioned method, pretreated for 30 min with VST, and then cultured for 18 hours. The cells were then treated for 4 hours with each concentration of cisplatin, and a week later their colony-forming ability was examined.

Experiment [3] deals with GRP78. The experiment is described as follows: Western blotting of GRP78 induction in HT-29 cells under endoplasmic reticulum stress. It counts as cell-based. The following applies: pretreated 30 min, 18 hours. The protocol: Specifically, […] HT-29 and HT1080 were cultured in RPMI1640 medium and pretreated for 30 min with 3 μM and 30 μM VST. Next, the GRP78 level was detected 18 hours after each endoplasmic reticulum stress treatment by Western blotting (FIG. 10). […] This phenomenon could be elucidated for the first time by the use of VST.

Experiment [4] concerns HT-29 cells. The experiment is described as follows: Colony formation of HT-29 cells under endoplasmic reticulum stress conditions. The class given is cell-based. The method, then:
HT-29 cells were pretreated for 30 min with each concentration of VST, and then subjected to stress treatment with each of the endoplasmic reticulum stresses, i.e., tunicamycin, calcium ionophore A23187, glucose starvation and 2-DG, for 18 hours. Subsequently, the cells were cultured for 1 week […], and then colonies were measured by crystal violet staining.

Experiment [5] deals with HT-29 cells. Kind of experiment: Re-examination of apoptosis inducing effect on HT-29 cells. The class given is cell-based. An excerpt: Since the in vitro strong effect could not be confirmed in the animal experiment, the apoptosis inducing effect of VST on HT-29 cells was reexamined.
In a further experiment the test system is GRP78 promoter. Kind of experiment: GRP78 promoter luciferase reporter analysis in HeLa78C6 cells, with tunicamycin-induced endoplasmic reticulum stress. The class given is cell-based, human. The protocol: Screening for natural substances that may regulate the expression of GRP78 was performed. Specifically, herbal medicines, and respective metabolites of fungus and actinomyces were prepared as test samples. A screening system was prepared as follows. A GRP78 promoter region (−132 to +7) comprising three ERSE was inserted into the KpnI-BglII site of the multicloning site of pGL3-basic vector (Promega), and a luciferase gene was linked as a reporter gene downstream of the GRP78 promoter to construct a vector. […]
The cell suspension (100 μL) was dispensed into each well of a 96-well plate and incubated at 37° C. in 5% CO2 for 6 hours. […] Then, luciferase activity of the cells was measured using a luciferase measurement kit (Luciferase Assay System: Promega, cat# E1501) following the instruction attached to the kit.
The main culture was separated into culture supernatant and mycelial cake by centrifugation. Similar to Example 1, the activities to suppress GRP78 expression were measured by the reporter analysis method for the culture supernatant and mycelial cake product that was obtained by homogenizing the mycelial cake, respectively. […] Then, luciferase activity of the cells was measured using a luciferase measurement kit.
Using pure VST purified in Example 3, its activity to suppress GRP78 promoter expression was quantitated. […]

Each structure is given as a SMILES string.

Take `CC/C1=C\C(CO)CC(C)C(OC2CC(O)C(OC3CC(OC)C(OC4CC(O)C(O)C(C)O4)C(C)O3)C(C)O2)C(C)CCCC2(C)C=C(C)C(C)CC23OC(=O)C(=C3O)C(=O)C2(CC)C1C(C)=CC1C(O)CC(=O)C(C)C12` (stereo not drawn) [VST, versipelostatin]: the “GRP78 protein level, time course” value with GRP78 [1] (50 μM VST pretreatment 30 min, 12 to 18 hours after tunicamycin 2 μg/mL (FIG. 9B)) is on record as “inhibited”. Further, the “selectivity of the effect among endoplasmic reticulum stresses” value in the experiment with GRP78 [1] (18 hours (FIG. 9C)) is listed as “higher selectivity against 2-deoxyglucose”. Further, the “induction of GRP78 by each endoplasmic reticulum stress-inducing agent” value in the experiment with GRP78 [1] (18 hours after treatment (FIG. 9C)) was “inhibited the induction of GRP78 against any of the endoplasmic reticulum stresses”. Further, the “induction of endogenous GRP78 at the protein level” value with GRP78 [1] (each concentration of VST 30 min before tunicamycin 2 μg/mL, 18 hours (FIG. 9A)) is on record as “inhibits”. Besides, the “effect of the combined use of VST with cisplatin on colony-forming ability” value with HT-29 cells [2] (VST 300 nM and 500 nM, then cisplatin 4 hours (FIG. 14)) is “further enhance the effect of cisplatin”. Further, the “activity on colony-forming ability under glucose starvation condition” value in the experiment on HT-29 cells [2] (glucose starvation condition) is recorded as “enhance the activity”. For the same molecule, the “induction of GRP78 by 2-DG” value in the experiment with GRP78 [3] (3 μM VST) was “inhibits the induction of GRP78”. The “GRP78 induction due to tunicamycin treatment” value in the experiment with GRP78 [3] (30 μM VST) was “did not inhibit GRP78 induction”. Further, the “cell growth suppression (colony formation)” value with HT-29 cells [4] (2-DG treatment 18 hours, 1 week culture (FIG. 11D)) is on record as “strong cell growth suppression effect”; in the experiment with HT-29 cells [4] (glucose starvation 18 hours, 1 week culture (FIG. 11C)), “strong cell growth suppression effect”; in the experiment with HT-29 cells [4] (tunicamycin treatment 18 hours, 1 week culture (FIG. 11A)), “did not show suppression on cell growth”. Further, the apoptosis induction effect entry in the experiment on HT-29 cells [5] is “fails to express apoptosis induction effect”. Further, the “growth suppression effect in colony forming tests” value in the experiment on HT-29 cells [5] was “shows growth suppression effect”. Also, the “suppression of the increase of luciferase activity (GRP78 promoter expression) due to tunicamycin” value with GRP78 promoter (sample added 30 min before tunicamycin 2 μg/mL, 18 hours) is “suppressed in concordance with the increase in VST concentration”. In addition, in the experiment with GRP78 promoter (without tunicamycin addition), the “luciferase expression from the GRP78 promoter, VST alone” value was “did not affect the expression of luciferase”.
